Measurements as given in the OligoGym collection.
After the bases stand the sugars from the 5' end (letter, count) and the backbone: PS all phosphorothioate, else s phosphorothioate and o phosphodiester by linkage. Methylation of C is not given here. l = locked nucleic acid (LNA); d = 2'-deoxy (DNA)

Target: SNHG14
Settings: ASO

Sequence | target mRNA inhibition (Human Neuronal Cell, 7.5 µM) [%] | target mRNA inhibition (Human Neuronal Cell, 0.2 µM) [%] | target mRNA inhibition (Human Neuronal Cell, 1 µM) [%] | further results
AGCTTTTAACCAGAGT (sugars l2 d10 l4, PS) | 81 | – | – | –
AGCTTTTAACCAGAGTGGCA (sugars l1 d17 l2, PS) | 64 | – | – | –
GACTACATTCTCAATA (sugars l3 d10 l3, PS) | – | 30 | 50 | –
TTTCCATTTATTTCCATTT (sugars lddldldddddddldddll, PS) | 53 | – | – | –
ATATTGATTCAATTCCC (sugars ldlddddddddlddlll, PS) | 67 | – | – | –
TCTATATCAAGTTCCTT (sugars l2 d11 l4, PS) | – | 51 | 43 | –
GCTTTTAACCAGAGTGGCA (sugars l1 d16 l2, PS) | 46 | – | – | –
TTTATCAATATCTTCTCACT (sugars lddddlddddddddldddll, PS) | 34 | – | – | –
TTCTGTATACACCATCC (sugars l1 d1 l2 d11 l2, PS) | 55 | – | – | –
TACACTTAATTATACTTCCA (sugars ldldddlddddddddlddll, PS) | 58 | – | – | –
TCCATTTATTTCCATTTATT (sugars lldldldddddddddddlll, PS) | 55 | – | – | –
CTTCTTGTTTATCCCAA (sugars l2 d11 l4, PS) | – | 57 | 68 | –
CTTCCCTTTGATAACA (sugars l4 d10 l2, PS) | – | 12 | 32 | –
TAAAATTATTTATACACCAT (sugars lldlllldddddddllldll, PS) | 26 | – | – | –
TATACCTTTCTTTAACCCT (sugars l2 d15 l2, PS) | – | 13 | 37 | –
ATGAAACTATTACTCC (sugars l2 d10 l4, PS) | – | 18 | 35 | –
CCTCAACTTCACCAAT (sugars l2 d10 l4, PS) | – | 37 | 49 | –
TCTGTATACACCATCC (sugars l4 d10 l2, PS) | – | 61 | 68 | –
CTAAATAGATTCCACT (sugars l2 d10 l4, PS) | – | 26 | 52 | –
TATTGAACCAATTCTA (sugars l3 d10 l3, PS) | – | 34 | 47 | –
TTATACACCATCATTAT (sugars l3 d11 l3, PS) | – | 47 | 52 | –
TATCAGTTATCCAATA (sugars l4 d10 l2, PS) | – | 42 | 51 | –

Sequence | target mRNA inhibition (Human Neuronal Cell, 7.5 µM) [%] | target mRNA inhibition (Human Neuronal Cell, 0.2 µM) [%] | target mRNA inhibition (Human Neuronal Cell, 1 µM) [%] | further results
AAAATTATTTATACACCATC (sugars ldldllddddddddlldlll, PS) | 59 | – | – | –
AGTTCTACTATACTTTCC (sugars l1 d13 l1 d1 l2, PS) | 47 | – | – | –
TCCTTTAGCATTTCTAT (sugars l3 d11 l3, PS) | – | 45 | 60 | –
TTATTTCCATTTATTTTCA (sugars ldldlddddddddllldll, PS) | 62 | – | – | –
TTACACTTAATTATACTTCC (sugars ldddddldddddddldldll, PS) | 61 | – | – | –
ATCAATATCTTCTCAC (sugars l3 d10 l3, PS) | – | 54 | 62 | –
TACATCTCATACTTGC (sugars l2 d12 l2, PS) | – | 0 | -10 | target mRNA inhibition (Human Neuronal Cell, 5 µM): 8%; target mRNA inhibition (Mouse Primary Neuronal Cell, 0.005 µM): 80.8%
TATTGATTCAATTCCCT (sugars lddllddddddddldll, PS) | 64 | – | – | –
TACACATCTTGTATAC (sugars l3 d10 l3, PS) | – | 14 | 36 | –
CTGTATACACCATCCCA (sugars ldlddddddddldddll, PS) | 52 | – | – | –
TAAAATTATTTATACACCAT (sugars ldldllddddddddldllll, PS) | 45 | – | – | –
CAACATTATTAACCACCTT (sugars ldlldddddddddddldll, PS) | 58 | – | – | –
TACTATCTTTGACATT (sugars l4 d10 l2, PS) | – | 49 | 58 | –
TCCATTTATTTCCATTTAT (sugars l2 d11 l2 d2 l2, PS) | 53 | – | – | –
AGCAACATTATTAACCACC (sugars lddlldddddddlddldll, PS) | 46 | – | – | –
AGACTAATCCTCTTAA (sugars l3 d10 l3, PS) | – | 38 | 52 | –
AAATTGTCTACCTTCCT (sugars l2 d12 l3, PS) | – | 29 | 19 | –
CCATTTATTTCCATTTATT (sugars llddlddddddddldddll, PS) | 61 | – | – | –
GTTTCCATCTACTATTAAT (sugars llldlddddddddldddll, PS) | 50 | – | – | –
TTTATCTCATGACCACC (sugars l2 d11 l4, PS) | – | 54 | 56 | –
TATCTTTCCATTTATTTCC (sugars l1 d2 l2 d12 l2, PS) | 47 | – | – | –
GATCATTCTCAACAATTAA (sugars lldllddddddddlldlll, PS) | 28 | – | – | –
